Several values for one entry are separate records, joined by “and”; a condition that tells them apart may be missing. Equal entries are not always repeated. Structures can show the parent of a compound that is named as a salt. Where two headings read alike, the source gives them in different places.
Assays:
SUDHL5 [1] = test: Anti-proliferative effect in SUDHL5 cells, CellTiter-Glo (Assay 7); type: cell-based; conditions: SUDHL5, 72 hours incubation, CellTiter-Glo, median, read-out: Antiproli SUDHL5 [M] (median)
Description: (§1) Assessment of the Anti-Proliferative Effect of Compounds in Different Cell Lines
(§2) The impact of compounds on the proliferation of different cell lines was assessed using the CellTiter-Glo® Luminescent Cell Viability reagent from Promega (G7573).
(§3) In parallel, cells were plated in a reference (day 0) plate for time zero determination. Cells were incubated in a humidified incubator at 37° C. overnight.
(§4) Rim wells were excluded. The cells were incubated for 72 hours in a humidified incubator at 37° C. The day 0 plate was measured by adding 30 μL/well of CTG solution (CellTiter-Glo® Luminescent Cell Viability reagent, Promega G7573) to time zero wells in the reference plate followed by a 10 minutes incubation and luminescence reading at 0.1 ms. using the PHERAstar FS microplate reader (BMG Labtech).
(§5) After 72 hours incubation, the treated plates were measured in the same way as the day 0 plate mentioned above. The Bella DRC Master Sheet was used to calculate IC50s, with CI=day 0 values and C0=DMSO control values.

SUDHL5 [2] = test: Induction of cytotoxicity in SUDHL5 cells, CellTiter-Glo (Assay 6); type: cell-based; conditions: Homo sapiens, SU-DHL-5, 5 h, SUDHL5, 5 hours incubation, median, read-out: Cytotox SUDHL5 [M] (median)
Description: (§6) Induction of Cytotoxicity Upon Treatment of Cells with Selected Compounds
(§7) In principle, compounds that induce apoptosis will concomitantly induce cell cytotoxicity. Therefore, cytotoxicity assays were run in parallel in SUDHL5 and SUDHL10 cells.
(§8) As a control, medium without cells was also added to the plate. Cells were incubated in a humidified incubator at 37° C. overnight. […] Rim wells were excluded. The cells were incubated for 5 hours in a humidified incubator at 37° C. After this incubation, 30 μl of CellTiter-Glo® Luminescent Cell Viability reagent (Promega, G7573) was added to each well using the Multidrop Combi Reagent Dispenser, followed by 15 minutes incubation on a shaker at room temperature. Finally, luminescence was read at 0.1 ms, with a gain of 3000 using the PHERAstar FS microplate reader (BMG Labtech).

SUDHL10 [3] = test: Induction of caspase-3/7 activity in SUDHL10 cells (Assay 4); type: cell-based; conditions: SUDHL10, 3 hours treatment, Caspase-Glo 3/7, median, read-out: Caspase SUDHL10 [M] (median)
Description: (§9) Induction of Caspase-3/7 Activity Upon Treatment of Cells with Selected Compounds
(§10) The BH3-domain of MCL-1 sequesters pro-apoptotic proteins, thereby inhibiting apoptosis. In contrast, MCL-1 inhibitors are expected to antagonize this effect leading to an increase in apoptosis, which can be determined by measuring the activity of caspase-3/7.
(§11) The activity of caspase-3/7 was determined in DLBCL (Diffuse large B-cell lymphoma) cell lines (SUDHL5 and SUDHL10) upon treatment with different compounds, using the Caspase-Glo® 3/7 reagent from Promega (G8092).
(§12) As a control, medium without cells was also added to the plate. Cells were incubated in a humidified incubator at 37° C. overnight.
(§13) Rim wells were excluded. The cells were incubated for 3 hours in a humidified incubator at 37° C. After this incubation, 30 μl of Caspase-Glo® 3/7 reagent (Promega G8092) was added to each well using the Multidrop Combi Reagent Dispenser, followed by 1 hour incubation at 37° C. Finally, luminescence was read at 0.1 ms, with a gain of 3000 using the PHERAstar FS microplate reader (BMG Labtech).
(§14) For the evaluation of the results, the background measured with “medium-only” was subtracted from all other values. Then, the values were normalized to DMSO-only treated cells (every value was divided by the mean of the DMSO control).

SUDHL5 [4] = test: Induction of caspase-3/7 activity in SUDHL5 cells (Assay 4); type: cell-based; conditions: SUDHL5, 3 hours treatment, Caspase-Glo 3/7, median, read-out: Caspase SUDHL5 [M] (median)
Description: as §9, §10, §11, §12, §13, §14

A2780 = test: Anti-proliferative effect in A2780 cells, CellTiter-Glo (Assay 7); type: cell-based; conditions: A2780, 72 hours incubation, CellTiter-Glo, several values per example, read-out: Antiproli A2780
Description: as §1, §2, §3, §4, §5

SUDHL10 [5] = test: Induction of cytotoxicity in SUDHL10 cells, CellTiter-Glo (Assay 6); type: cell-based; conditions: SUDHL10, 5 hours incubation, median, read-out: Cytotox SUDHL10 [M] (median)
Description: as §6, §7, §8

MCL-1 = MCL-1 (Homo sapiens, UniProt Q07820, K194A/K197A/R201A); test: Protein-protein interaction assay MCL-1/Noxa BH3 peptide, TR-FRET (MCL-1 assay, Assay 1); type: binding; conditions: MBP-MCL-1 / Noxa BH3 peptide
Description: The dose-dependent inhibition by the compounds described in this invention of the interaction between MCL-1 and the BH3 domain of Noxa (both human) was determined using a steady state binding competition assay with time-resolved fluorescence energy transfer (TR-FRET) readout. For that purpose MCL-1 (amino acids 173-321, N-terminal fused to Maltose Binding Protein (MBP), SEQ ID 1) and a synthetic Noxa BH3-derived peptide of sequence Biotin-PEG2-PEG2-PAELEVE-Nva-[…]-amide (SEQ ID 2) served as protein receptor and tracer ligand respectively. The MBP-MCL-1 was purchased from Beryllium (Bedford, Mass., USA). The expression and purification of this protein construct has been described elsewhere (DOI:10.1371/journal.pone.0125010). The Noxa BH3-derived peptide can be obtained from e.g. Biosyntan (Berlin, Germany).
For that, 100-fold concentrated DMSO solutions were prepared by serial dilutions (1:3.4) of a 2 mM stock solution in a clear, 384-well microtiter plate (Greiner Bio-One, Frickenhausen, Germany). From there, 50 nl were transferred in a dark test plate (Greiner Bio-One, Frickenhausen, Germany). The assay was initiated by addition of 2 μl of a 2,5-fold concentrated MBP-MCL-1 solution (usually for a 1 nM end concentration in 5 μl reaction volume) in aqueous assay buffer [50 mM Tris/HCl pH 7, 100 mM sodium chloride (NaCl), 50 mM potassium fluoride (KF), 0.005% Tween-20, 2 mM DTT, 0.1% bovine gamma globulin (BGG)] to the compounds in the assay plate. This was followed by a 10-minute incubation step at 22° C. for pre-equilibration of the putative complex between MBP-MCL-1 and the compounds.
The mixture was incubated in the dark for one hour at 22° C. and then overnight at 4° C. The formation of MCL-1/Noxa complexes was determined by measuring the resonance energy transfer of the anti-MBP-Eu-cryptate antibody to the streptavidin-XL665 present in the reaction.
The resulting data (ratio) were normalized, taking 0% inhibition as the mean value of control measurements (usually 32 data points) where all reagents were included. In this case 50 nl DMSO were used instead of compounds. […] IC50 values were determined by regression analysis based on a 4 parameter equation (minimum, maximum, IC50, Hill; Y=Max+(Min−Max)/(1+(X/IC50)^Hill) using the Screener Software (Genedata).

MV-4-11 = test: Anti-proliferative effect in MV-4-11 cells, CellTiter-Glo (Assay 7); type: cell-based; conditions: MV-4-11, 72 hours incubation, CellTiter-Glo, several values per example, read-out: Antiproli MV-4-11
Description: as §1, §2, §3, §4, §5

MCL-1, sequence (Q07820 173-321 K194A/K197A/R201A, looked up): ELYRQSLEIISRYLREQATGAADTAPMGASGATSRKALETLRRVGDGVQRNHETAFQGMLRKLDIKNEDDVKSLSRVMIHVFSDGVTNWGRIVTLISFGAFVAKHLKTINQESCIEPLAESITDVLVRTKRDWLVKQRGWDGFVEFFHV

| Compound | IC50 (SUDHL5 [1]; Homo sapiens, SU-DHL-5, 72 h) [M] | IC50 (SUDHL5 [2]) [M] | EC50 (SUDHL10 [3]; Homo sapiens, SU-DHL10, 3 h) [M] | EC50 (SUDHL5 [4]; Homo sapiens, SU-DHL-5, 3 h) [M] | IC50 (A2780; Homo sapiens, A2780, 72 h) [µM] | IC50 (SUDHL10 [5]; Homo sapiens, SU-DHL10, 5 h) [M] | IC50 (MCL-1; MCL-1 Assay [M] (median)) | IC50 (MV-4-11; Homo sapiens, MV4-11, 72 h) [µM] | IC50 (A2780; Acetate Salt) [µM] | IC50 (A2780) | IC50 (MV-4-11) | IC50 (SUDHL5 [1]) [M] | EC50 (SUDHL10 [3]) [M] | EC50 (SUDHL5 [4]) [M] | IC50 (SUDHL10 [5]) [M] | IC50 (MCL-1; median, read-out: MCL-1 Assay [M] (median)) |
| --- | --- | --- | --- | --- | --- | --- | --- | --- | --- | --- | --- | --- | --- | --- | --- | --- |
| Cc1c2c(nn1C)CN(C(=O)NCC1CCOCC1)Cc1ccccc1Cn1c(C(=O)O)c(CCCOc3cccc4ccccc34)c3cccc-2c31 (racemic) [Example 27, (rac)-4,5-Dimethyl-17-[3-(naphthalen-1-yloxy)propyl]-8-[(tetrahydro-2H-pyran-4-ylmethyl)-carbamoyl]-7,8,9,14-tetrahydro-5H-indolo[1,7-bc]pyrazolo[4,3-e][2,8]benzodiazacycloundecine-16-carboxylic Acid] | 2.7e-05 | > 3.3e-05 | > 3.3e-05 | > 3.3e-05 | 31.4 | > 3.3e-05 | 3.1e-08 | 24.8 |  |  |  |  |  |  |  |  |
| Cc1c2c(nn1C)CN(S(=O)(=O)c1ccc(N3CCOCC3)nc1)Cc1ccccc1Cn1c(C(=O)O)c(CCCOc3cccc4ccccc34)c3cccc-2c31 (racemic) [Example 17, (rac)-4,5-Dimethyl-8-{[6-(morpholin-4-yl)pyridin-3-yl]sulfonyl}-17-[3-(naphthalen-1-yloxy)propyl]-7,8,9,14-tetrahydro-5H-indolo[1,7-bc]pyrazolo[4,3-e][2,8]benzodiazacycloundecine-16-carboxylic Acid Acetate Salt] | 3.9e-06 | 3.1e-06 | 8.5e-06 | 3e-06 | 4.91 | 1.4e-05 | 3.4e-08 |  | 5.77 |  |  |  |  |  |  |  |
| Cc1c2c(nn1C)CN(C(=O)CC1CCOCC1)Cc1ccccc1Cn1c(C(=O)O)c(CCCOc3cccc4ccccc34)c3cccc-2c31 (racemic) [Example 21, (rac)-4,5-Dimethyl-17-[3-(naphthalen-1-yloxy)propyl]-8-(tetrahydro-2H-pyran-4-ylacetyl)-7,8,9,14-tetrahydro-5H-indolo[1,7-bc]pyrazolo[4,3-e][2,8]benzodiazacycloundecine-16-carboxylic Acid] | 1.1e-05 | 1.3e-05 | > 3.3e-05 | 2e-05 | 11.9 | > 3.3e-05 | 3.5e-08 | 8.33 |  |  |  |  |  |  |  |  |
| Cc1c2c(nn1C)COCc1ncccc1Cn1c(C(=O)O)c(CCCOc3cccc4ccccc34)c3cccc-2c31 [Example 07] |  |  |  |  |  |  |  |  |  | 29.6 µM and > 33 µM | 5.15 µM and 5.5 µM |  |  |  |  |  |
| CCc1c2c(nn1C)COCc1ccccc1Cn1c(C(=O)O)c(CCCOc3cccc4ccccc34)c3ccc(F)c-2c31 (racemic) [Example 70, (rac)-14-Ethyl-15-fluoro-13-methyl-1-(3-(naphthalen-1-yloxy)propyl)-4,9,11,13-tetrahydrobenzo[3,4]pyrazolo[4′,3′:9,10][1]oxa[6]azacycloundecino[8,7,6-hi]indole-2-carboxylic Acid] |  |  |  |  |  |  |  |  |  | 22.8 µM and 22.5 µM | 2.41 µM and 2.27 µM | 2.2e-06 | 8.6e-06 | 1.6e-06 | 6.1e-06 | 2.1e-09 |
| Cc1c2c(nn1C)COCc1cccnc1Cn1c(C(=O)O)c(CCCOc3cccc4ccccc34)c3cccc-2c31 [Example 04] |  |  |  |  |  |  |  |  |  | 31.1 µM and > 33 µM |  |  |  |  |  |  |
| Cc1c2c(nn1C)COCc1ccccc1Cn1c(C(=O)O)c(CCCOc3cccc4ccccc34)c3ccc(F)c-2c31 (racemic) [Example 67, (rac)-15-Fluoro-13,14-dimethyl-1-(3-(naphthalen-1-yloxy)propyl)-4,9,11,13-tetrahydrobenzo[3,4]pyrazolo[4′,3′:9,10][1,6]oxaazacycloundecino[8,7,6-hi]indole-2-carboxylic Acid] | 2.4e-06 | 1.8e-06 | 5.9e-06 | 2.2e-06 | 20.5 | 4.9e-06 |  | 3.08 |  |  |  |  |  |  |  |  |
| Cc1c2c(nn1C)CNCc1ccccc1Cn1c(C(=O)O)c(CCCOc3cccc4ccccc34)c3cccc-2c31 (racemic) [Example 11, (rac)-4,5-Dimethyl-17-[3-(naphthalen-1-yloxy)propyl]-7,8,9,14-tetrahydro-5H-indolo[1,7-bc]pyrazolo[4,3-e][2,8]benzodiazacycloundecine-16-carboxylic Acid] | 7.2e-06 | 5.6e-06 | 1.6e-05 | 5.6e-06 | 11.8 | 1.5e-05 |  | 7.59 |  | 12.2 µM | 7.42 µM |  |  |  |  |  |

Source: US20210253598A1, “ARYL ANNULATED MACROCYCLIC INDOLE DERIVATIVES” (priority 2017, published 2021)
